Laboratory results reported in patent US11998553B2, “Certain (2S)-N-[(1S)-1-cyano-2-phenylethyl]-1,4-oxazepane-2-carboxamides for treating lupus nephritis” (Insmed Incorporated, priority 2018, dated 2024).

Tested on: NZB/WF1 mice
Test: Accelerated lupus nephritis model in mice (Ad-IFNα5 injection)
Type: in vivo
Experimental: INS1007 as a potential treatment for LN was assessed. 10-11 week old female New Zealand Black/New Zealand White F1 (NZB/WF1) mice (Jackson Laboratory) were subjected to a single injection of an adenovirus expressing IFNα5 (Ad-IFNα5, BioXcell, cat #BE0241, clone AR1-5A3) to accelerate the clinical manifestations of LN. FIG. 1 provides a schematic overview of the study design.
The duration of the study was 8 weeks from Ad-IFNα5 injection.
Urine and blood collection was carried out at baseline (immediately after Ad-IFNα5 injection), and at weeks 2, 4, 6 and 8. Total protein (by chemstick), albumin (by ELISA) and creatinine (by a colorimetric assay kit) was measured in urine and blood urea nitrogen (BUN) was measured in plasma.
Animals were sacrificed at 8 weeks and the left kidney of each animal was used for histopathology analysis. Pathology scores are summed from individual scores of three aspects: glomerulonephritis, tubular protein and nephropathy and were scored by a Certified Veterinary Pathologist.
The right kidneys of each animal were used for FACS analysis. Right kidneys were digested and subjected to Percoll centrifugation, fixable-viability-dye and surface staining for the following markers: CD45, CD3, CD11b, F4/80, Ly6G and Ly6C. Results of FACS are provided at FIGS. 7-13.

Cn1c(=O)oc2ccc(-c3ccc(C[C@@H](C#N)NC(=O)[C@@H]4CNCCCO4)cc3)cc21 [INS1007, (2S)—N-{(1S)-1-cyano-2-[4-(3-methyl-2-oxo-2,3-dihydro-1,3-benzoxazol-5-yl)phenyl]ethyl}-1,4-oxazepane-2-carboxamide]
pseudo-survival (urine total protein less than 750 mg/dL) (days post Ad-IFNα5 injection, INS1007 0.1, 1, 10 mg/kg PO twice daily, FIG. 5): increased “pseudo-survival” (and decreased total protein concentration) in a dose dependent manner | renal pathology score sum (glomerulonephritis, tubular protein, nephropathy) (left kidney histopathology at 8 weeks, vs vehicle, FIG. 6): decreased renal pathology as compared to vehicle control | blood urea nitrogen (BUN) levels (plasma BUN (mg/dL), 6 weeks after model induction, INS1007 0.1, 1, 10 mg/kg PO twice daily, FIG. 4): decreased in animals treated with INS1007 in a dose dependent matter | T-lymphocyte percent of total kidney cells (right kidney FACS, CD45+, CD3+, week 8, FIG. 13): significantly decreased | Ly6C+ macrophage percent of total kidney cells (right kidney FACS, CD45+, CD11b+, F4/80+, Ly6C+, Ly6G−, week 8, FIG. 11): significantly decreased | Ly6C+ monocyte percent of total kidney cells (right kidney FACS, CD45+, CD11b+, Ly6G−, Ly6C+, week 8, FIG. 10): significantly decreased | myelocyte percent of total kidney cells (right kidney FACS, CD45+, CD11b+, week 8, FIG. 8): significantly decreased | urinary protein concentration (urine total protein by chemstick (mg/dL), week 8, INS1007 0.1, 1, 10 mg/kg PO twice daily from week 2, FIG. 3): decrease in urinary protein concentration (mg/dL) in a dose dependent manner
